Where two headings read alike, the source gives them in different places.
Tests used:
[1] = tested on: human PC3 (prostate) tumor xenograft; assay: Antitumor activity, single IV dose, PC3 xenograft; conditions: for Partial Tumor Regression (%) / TGD / TGD (%) / TGI (%) / median survival: single IV
Description: Tumor cell lines were implanted subcutaneously into the flank of nude (immunodeficient) mice and allowed to grow to a fixed size. […] In each case, where possible, doses were selected as providing equivalent levels of toxicity/tolerance. […] Tumor volume was analyzed to determine tumor growth delay (TGD) and partial regression. Mice were removed from the study if they lost 20% of their initial bodyweight or became moribund or if their tumor volume exceeded 2500 mm^3 or the tumor ulcerated. If less than half of the initial cohort of mice remained, that group was no longer graphed or included in further tumor analysis. However, any remaining animals were followed until completion of the in-life observation period and included in a survival analysis.

clinical = conditions: human, in vivo, iv
[2] = human, in vivo; for AUC(0-inf) / AUC/Dose / CL / Cmax/Dose / Vss: iv
[3] = tested on: PC3 human prostate xenograft; conditions: for median survival: docetaxel
Description: In another study, athymic male nude mice bearing PC3 human prostate xenograft were given two or four intravenous (IV) doses of PEGylated TD-1 liposome, Taxotere® or saline. Dosing intervals were twenty-one days for two cycles or every four days for four cycles.
Tumor volume was measured 2-3 times per week using the Biopticon tumor imaging system and tumor volume data was analyzed to determine TGD and partial tumor regression. Survival analysis was conducted and median survival time determined.

[4] = cited from earlier work
[5] = Tissue distribution in mice with A549 xenograft; conditions: for Kidney AUC of docetaxel / Liver AUC of docetaxel / Lung AUC of docetaxel / Muscle AUC of docetaxel / Spleen AUC of docetaxel / Tumor AUC of docetaxel: single IV
Description: The plasma pharmacokinetics and distribution were studied in female athymic nude mice each implanted subcutaneously with A549 cells (human non-small cell lung cancer). Once tumors reached a volume of 100-300 mm^3, animals were randomized into 4 groups.
Three animals were sacrificed at 1, 4, 24, 72 (3 days), 168 (7 days), 216 (9 days), 336 (14 days), 432 (18 days) and 504 hours (21 days) post injection.

[6] = high dose Taxotere® 100 mg/m^2, van Oosterom 1995

Q: What does the source list for `CC(=O)O[C@@]12CO[C@@H]1C[C@H](O)[C@@]1(C)C(=O)[C@H](O)C3=C(C)[C@@H](OC(=O)[C@H](O)[C@@H](NC(=O)OC(C)(C)C)c4ccccc4)C[C@@](O)([C@@H](OC(=O)c4ccccc4)[C@H]21)C3(C)C` [Docetaxel, docetaxel]?
A: Partial Tumor Regression (%) ([1]; docetaxel 9 mg/kg): 0%; TGD ([1]; docetaxel 9 mg/kg): 11; TGD (%) ([1]; docetaxel 9 mg/kg): 42%; TGI (%) ([1]; docetaxel 9 mg/kg): 38%; median survival ([1]; docetaxel 9 mg/kg): 47 days; Partial Tumor Regression (%) ([1]; docetaxel 18 mg/kg): 33%; TGD ([1]; docetaxel 18 mg/kg): 41; TGD (%) ([1]; docetaxel 18 mg/kg): 154%; TGI (%) ([1]; docetaxel 18 mg/kg): 91%; median survival ([1]; docetaxel 18 mg/kg): 81 days; Partial Tumor Regression (%) ([1]; docetaxel 27 mg/kg): 60%; TGD ([1]; docetaxel 27 mg/kg): 42; TGD (%) ([1]; docetaxel 27 mg/kg): 157%; TGI (%) ([1]; docetaxel 27 mg/kg): 98%; median survival ([1]; docetaxel 27 mg/kg): 84 days; tumor growth ([1]; docetaxel 18 and 27 mg/kg): inhibited tumor growth; survival compared to saline ([1]; docetaxel 18 and 27 mg/kg, all doses of TD-1 liposomes and PEGylated TD-1 liposomes, p<0.05, Mantel-Cox log-rank): increased survival significantly more than saline; Cmax (clinical; 3 mg/m2): 0.0155 µg/mL; half-life (clinical; 3 mg/m2, t1/2): 14 h; Cmax (clinical; 6 mg/m2): 0.0363 µg/mL; half-life (clinical; 6 mg/m2, t1/2): 9.32 h; Cmax (clinical; 12 mg/m2): 0.0747 µg/mL; half-life (clinical; 12 mg/m2, t1/2): 12.3 h; Cmax (clinical; 24 mg/m2): 0.149 µg/mL; half-life (clinical; 24 mg/m2, t1/2): 55.3 h; Cmax (clinical; 48 mg/m2): 0.187 µg/mL; half-life (clinical; 48 mg/m2, t1/2): 73.5 h; Cmax (clinical; 80 mg/m2): 0.307 µg/mL; half-life (clinical; 80 mg/m2, t1/2): 28.8 h; Cmax (clinical; 120 mg/m2): 0.702 µg/mL; half-life (clinical; 120 mg/m2, t1/2): 45.8 h; Cmax (clinical; 160 mg/m2): 0.879 µg/mL; half-life (clinical; 160 mg/m2, t1/2): 51.1 h; AUC(0-inf) (clinical; 190 mg/m2): 18.8 µg·h/mL; Cmax (clinical; 190 mg/m2): 1.13 µg/mL; half-life (clinical; 190 mg/m2, t1/2): 51.9 h; AUC(0-inf) (clinical; 225 mg/m2): 33.9 µg·h/mL; Cmax (clinical; 225 mg/m2): 1.04 µg/mL; half-life (clinical; 225 mg/m2, t1/2): 61.8 h; AUC(0-inf) (clinical; 270 mg/m2): 26.2 µg·h/mL; Cmax (clinical; 270 mg/m2): 1.19 µg/mL; half-life (clinical; 270 mg/m2, t1/2): 35.5 h; AUC(0-inf) (clinical; 320 mg/m2): 37.6 µg·h/mL; Cmax (clinical; 320 mg/m2): 1.74 µg/mL; half-life (clinical; 320 mg/m2, t1/2): 40.8 h; AUC(0-inf) (clinical; 380 mg/m2): 107 µg·h/mL; Cmax (clinical; 380 mg/m2): 2.9 µg/mL; half-life (clinical; 380 mg/m2, t1/2): 67.7 h; CL (mean) [2]: 14.13 L/h/m^2; Cmax and AUC with respect to dose [2]: remained linear with respect to dose; Vss (mean) [2]: 458.8 L/m^2; dose proportionality for Cmax and AUCinf [2]: demonstrate dose proportionality; AUC(0-inf) ([2]; 3 mg/m2): 0.225 µg·h/mL; AUC(0-inf) ([2]; 6 mg/m2): 0.265 µg·h/mL; AUC(0-inf) ([2]; 12 mg/m2): 0.721 µg·h/mL; AUC/Dose ([2]; 12 mg/m2): 60.1 m^2 · ng · h/ml/mg; CL ([2]; 12 mg/m2): 16.92 l/h/m^2; Cmax/Dose ([2]; 12 mg/m2): 6.22 m^2 · ng/ml/mg; Vss ([2]; 12 mg/m2): 257.1 l/m^2; AUC(0-inf) ([2]; 24 mg/m2): 4.899 µg·h/mL; AUC(0-inf) ([2]; 48 mg/m2): 5.297 µg·h/mL; AUC/Dose ([2]; 48 mg/m2): 110.4 m^2 · ng · h/ml/mg; CL ([2]; 48 mg/m2): 13.29 l/h/m^2; Cmax/Dose ([2]; 48 mg/m2): 3.90 m^2 · ng/ml/mg; Vss ([2]; 48 mg/m2): 705.3 l/m^2; AUC(0-inf) ([2]; 80 mg/m2): 4.798 µg·h/mL; AUC(0-inf) ([2]; 120 mg/m2): 28.103 µg·h/mL; AUC/Dose ([2]; 120 mg/m2): 234.2 m^2 · ng · h/ml/mg; CL ([2]; 120 mg/m2): 7.15 l/h/m^2; Cmax/Dose ([2]; 120 mg/m2): 5.85 m^2 · ng/ml/mg; Vss ([2]; 120 mg/m2): 292.5 l/m^2; AUC(0-inf) ([2]; 160 mg/m2): 16.518 µg·h/mL; AUC/Dose ([2]; 225 mg/m2): 150.8 m^2 · ng · h/ml/mg; CL ([2]; 225 mg/m2): 6.75 l/h/m^2; Cmax/Dose ([2]; 225 mg/m2): 4.64 m^2 · ng/ml/mg; Vss ([2]; 225 mg/m2): 413.4 l/m^2; AUC/Dose ([2]; 320 mg/m2): 117.6 m^2 · ng · h/ml/mg; CL ([2]; 320 mg/m2): 9.14 l/h/m^2; Cmax/Dose ([2]; 320 mg/m2): 5.43 m^2 · ng/ml/mg; Vss ([2]; 320 mg/m2): 404.0 l/m^2; growth of PC3 human prostate xenograft (mean tumor volume over time) ([3]; IV administration, FIG. 8A): dose dependently inhibited growth; Partial Tumor Regression (%) ([3]; docetaxel 5 mg/kg (q4dx4)): 0%; TGD ([3]; docetaxel 5 mg/kg (q4dx4)): 34 days; TGD (%) ([3]; docetaxel 5 mg/kg (q4dx4)): 213%; Partial Tumor Regression (%) ([3]; docetaxel 10 mg/kg (q4dx4)): 80%; TGD ([3]; docetaxel 10 mg/kg (q4dx4)): 69 days; TGD (%) ([3]; docetaxel 10 mg/kg (q4dx4)): 431%; Partial Tumor Regression (%) ([3]; docetaxel 30 mg/kg (q21dx2)): 100%; TGD ([3]; docetaxel 30 mg/kg (q21dx2)): 73 days; TGD (%) ([3]; docetaxel 30 mg/kg (q21dx2)): 456%; Partial Tumor Regression (%) ([3]; docetaxel 60 mg/kg (q21dx2)): 100%; TGD ([3]; docetaxel 60 mg/kg (q21dx2)): 86 days; TGD (%) ([3]; docetaxel 60 mg/kg (q21dx2)): 538%; median survival ([3]; 1st dose group listed (5 mg/kg q4dx4 by order of Table 8)): 62 days; median survival ([3]; 2nd dose group listed (10 mg/kg q4dx4 by order of Table 8)): 88 days; median survival ([3]; 3rd dose group listed (30 mg/kg q21dx2 by order of Table 8)): 93 days; median survival ([3]; 4th dose group listed (60 mg/kg q21dx2 by order of Table 8)): 107 days; reported t1/2 ([4]; Taxotere® (docetaxel), Clarke & Rivory 1999, Prescribing Information): 12 h; docetaxel Cmax [4, 6]: 2.68 µg/mL; docetaxel half-life [4, 6]: 10 to 19 h; docetaxel Cmax associated with increased incidence of adverse effects ([4]; plasma, therapeutic window, FIG. 2): above 0.64 μg/ml; Kidney AUC of docetaxel ([5]; docetaxel 30 mg/kg): 28 µg·h/g; Liver AUC of docetaxel ([5]; docetaxel 30 mg/kg): 10 µg·h/g; Lung AUC of docetaxel ([5]; docetaxel 30 mg/kg): 86 µg·h/g; Muscle AUC of docetaxel ([5]; docetaxel 30 mg/kg): 23 µg·h/g; Spleen AUC of docetaxel ([5]; docetaxel 30 mg/kg): 77 µg·h/g; Tumor AUC of docetaxel ([5]; docetaxel 30 mg/kg): 276 µg·h/g; time tumor retained measurable levels of docetaxel ([5]; docetaxel 50 mg/kg): 216 h; Kidney AUC of docetaxel ([5]; docetaxel 50 mg/kg): 179 µg·h/g; Liver AUC of docetaxel ([5]; docetaxel 50 mg/kg): 37 µg·h/g; Lung AUC of docetaxel ([5]; docetaxel 50 mg/kg): 211 µg·h/g; Muscle AUC of docetaxel ([5]; docetaxel 50 mg/kg): 64 µg·h/g; Spleen AUC of docetaxel ([5]; docetaxel 50 mg/kg): 162 µg·h/g; Tumor AUC of docetaxel ([5]; docetaxel 50 mg/kg): 442 µg·h/g; time after which docetaxel concentrations fell below the limits of quantitation in most tissues ([5]; docetaxel 50 mg/kg, all tissues except tumor): 24 h; time after which tumor levels of docetaxel fell below the levels of quantitation (1.0 μg/g) ([5]; intravenous injection of docetaxel): nine

Source: patent US20160250177A1, “MODIFIED DOCETAXEL LIPOSOME FORMULATIONS AND USES THEREOF” (MALLINCKRODT LLC, priority 2015, published 2016)
